Laboratory results taken from ChEMBL document CHEMBL1201862, “PubChem BioAssay data set” (2004).
The source made the active and inactive calls.

Assays:
[1] = THP-1 cell cytotoxicity, dose response, cytotoxicity control for non-replicating M. tuberculosis project (AID 489025); type: functional
[2] = HepG2 cell cytotoxicity, dose response, cytotoxicity control for non-replicating M. tuberculosis project (AID 489018); type: functional; conditions: Mycobacterium tuberculosis
[3] = Trypanosoma cruzi growth suppression in host cells – NIH3T3 host cells, beta-gal luminescence, confirmation (AID 2044); type: functional, cell-based;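 further: intracellular parasites grown in NIH/3T3 mouse fibroblasts as host cells; luminescent beta-galactosidase reporter signal from transgenic T. cruzi replicating inside host cells; inhibitors lower the luminescence signal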
[4] = target: T1, Calpain-2 catalytic subunit (Sus scrofa, UniProt P43367); assay: m-calpain protease blockers, concentration series – biochemical, fluorogenic peptide substrate, dose response (AID 1420); type: functional
T1 sequence (P43367 whole entry): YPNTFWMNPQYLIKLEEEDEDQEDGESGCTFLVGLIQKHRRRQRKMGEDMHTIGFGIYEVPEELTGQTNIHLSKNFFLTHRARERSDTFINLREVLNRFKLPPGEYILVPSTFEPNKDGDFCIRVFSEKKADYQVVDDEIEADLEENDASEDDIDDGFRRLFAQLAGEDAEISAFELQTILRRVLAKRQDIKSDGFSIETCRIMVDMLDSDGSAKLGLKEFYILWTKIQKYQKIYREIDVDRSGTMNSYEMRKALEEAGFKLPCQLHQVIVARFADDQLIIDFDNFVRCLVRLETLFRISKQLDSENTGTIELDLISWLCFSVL

[5] = target: T2, Hexokinase HKDC1 (Homo sapiens, UniProt Q2TB90); assay: activation of HKDC1 glucose phosphorylation – biochemical, W721R variant, dose response (AID 504730); type: functional
T2 sequence (Q2TB90 whole entry): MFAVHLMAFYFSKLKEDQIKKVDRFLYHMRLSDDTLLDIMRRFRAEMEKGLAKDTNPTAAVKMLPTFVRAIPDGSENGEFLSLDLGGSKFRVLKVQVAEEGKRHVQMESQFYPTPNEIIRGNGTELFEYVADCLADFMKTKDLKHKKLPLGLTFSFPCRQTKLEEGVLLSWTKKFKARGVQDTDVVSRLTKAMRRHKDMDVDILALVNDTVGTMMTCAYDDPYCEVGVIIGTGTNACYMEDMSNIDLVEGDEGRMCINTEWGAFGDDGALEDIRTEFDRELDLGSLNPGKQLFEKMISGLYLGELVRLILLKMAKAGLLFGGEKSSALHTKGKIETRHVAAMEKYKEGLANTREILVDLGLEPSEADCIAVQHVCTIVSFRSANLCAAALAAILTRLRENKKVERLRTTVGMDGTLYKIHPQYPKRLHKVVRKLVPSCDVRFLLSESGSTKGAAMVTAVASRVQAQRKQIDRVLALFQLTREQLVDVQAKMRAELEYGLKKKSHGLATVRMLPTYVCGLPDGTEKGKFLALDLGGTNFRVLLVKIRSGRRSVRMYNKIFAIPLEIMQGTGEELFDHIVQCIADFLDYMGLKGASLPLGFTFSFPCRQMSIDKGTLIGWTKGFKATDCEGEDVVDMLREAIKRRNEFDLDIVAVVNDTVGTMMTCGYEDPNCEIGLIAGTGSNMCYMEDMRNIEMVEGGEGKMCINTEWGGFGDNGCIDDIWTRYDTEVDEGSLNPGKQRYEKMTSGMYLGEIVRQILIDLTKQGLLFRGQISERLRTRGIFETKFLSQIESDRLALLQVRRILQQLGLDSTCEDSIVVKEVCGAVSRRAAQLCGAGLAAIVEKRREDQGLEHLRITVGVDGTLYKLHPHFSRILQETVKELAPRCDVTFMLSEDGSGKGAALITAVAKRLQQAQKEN

[6] = target: T3, Streptokinase A (Streptococcus pyogenes serotype M1, UniProt P10520); assay: viability-normalized secreted streptokinase activity reduction – plasminogen activation absorbance, OD405, dose response (AID 1914); type: functional, Streptococcus pyogenes M1 GAS;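 further: secreted streptokinase activity via plasminogen activation per viability signal from cell pellet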
T3 sequence (P10520 whole entry): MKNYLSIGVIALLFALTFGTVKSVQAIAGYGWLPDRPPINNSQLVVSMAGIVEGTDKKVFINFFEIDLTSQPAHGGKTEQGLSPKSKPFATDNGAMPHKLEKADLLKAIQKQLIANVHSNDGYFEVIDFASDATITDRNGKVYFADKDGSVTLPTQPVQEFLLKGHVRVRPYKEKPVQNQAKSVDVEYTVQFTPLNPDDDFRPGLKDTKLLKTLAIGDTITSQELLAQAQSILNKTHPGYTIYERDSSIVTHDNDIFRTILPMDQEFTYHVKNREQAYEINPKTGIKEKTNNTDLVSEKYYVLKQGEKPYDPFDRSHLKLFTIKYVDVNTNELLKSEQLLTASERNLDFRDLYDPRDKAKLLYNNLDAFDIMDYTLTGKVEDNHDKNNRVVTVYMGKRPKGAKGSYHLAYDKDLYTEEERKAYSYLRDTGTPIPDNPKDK

[7] = target: Female germline-specific tumor suppressor gld-1 (Caenorhabditis elegans, UniProt Q17339); assay: blockers of GLD-1/TGE RNA complex formation – biochemical, fluorescence polarization, C. elegans, dose response (AID 2802);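 further: fluorescence polarization of labeled TGE RNA bound by purified gld-1 protein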
[8] = target: 14-3-3 protein gamma (Homo sapiens, UniProt P61981); assay: modulators of 14-3-3 gamma client binding – dose response (AID 711); type: functional
[9] = off-target signal loss in HeLa-CEM21 co-culture – HeLa F-luc CTL cells, cherry-picked, counter-screen for HIV-1 Env fusion inhibitor project, dose response (AID 652040); type: functional, cell-based;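 further: potency for signal decrease marking cytotoxic or nonspecific inhibition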
[10] = target: Mitogen-activated protein kinase 9 (Homo sapiens, UniProt P45984); type: functional;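 further: value from a kinome panel profiling assay, MAPK9 panel entry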
[11] = target: Proto-oncogene tyrosine-protein kinase receptor Ret (Homo sapiens, UniProt P07949); type: functional;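 further: measured within a kinome-wide profiling panel, RET as the panel member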
[12] = target: Dual specificity tyrosine-phosphorylation-regulated kinase 3 (Homo sapiens, UniProt O43781); type: functional;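 further: measured as one member of a broad kinase panel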
[13] = target: Leucine-rich repeat serine/threonine-protein kinase 2 (Homo sapiens, UniProt Q5S007); type: functional;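 further: value from a broad kinome-wide panel profiling study in which LRRK2 was one of the kinases tested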
[14] = target: Cyclin-dependent kinase 1 (Homo sapiens, UniProt P06493); type: functional;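 further: Kinome-wide panel profiling, with the target listed as panel member CDC2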
[15] = target: Kappa-type opioid receptor (Homo sapiens, UniProt P41145); type: functional
[16] = target: Mitogen-activated protein kinase kinase kinase kinase 5 (Homo sapiens, UniProt Q9Y4K4); type: functional;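 further: measured as one member of a kinome-spanning kinase panel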

Leucine-rich repeat serine/threonine-protein kinase 2, sequence (Q5S007 whole entry): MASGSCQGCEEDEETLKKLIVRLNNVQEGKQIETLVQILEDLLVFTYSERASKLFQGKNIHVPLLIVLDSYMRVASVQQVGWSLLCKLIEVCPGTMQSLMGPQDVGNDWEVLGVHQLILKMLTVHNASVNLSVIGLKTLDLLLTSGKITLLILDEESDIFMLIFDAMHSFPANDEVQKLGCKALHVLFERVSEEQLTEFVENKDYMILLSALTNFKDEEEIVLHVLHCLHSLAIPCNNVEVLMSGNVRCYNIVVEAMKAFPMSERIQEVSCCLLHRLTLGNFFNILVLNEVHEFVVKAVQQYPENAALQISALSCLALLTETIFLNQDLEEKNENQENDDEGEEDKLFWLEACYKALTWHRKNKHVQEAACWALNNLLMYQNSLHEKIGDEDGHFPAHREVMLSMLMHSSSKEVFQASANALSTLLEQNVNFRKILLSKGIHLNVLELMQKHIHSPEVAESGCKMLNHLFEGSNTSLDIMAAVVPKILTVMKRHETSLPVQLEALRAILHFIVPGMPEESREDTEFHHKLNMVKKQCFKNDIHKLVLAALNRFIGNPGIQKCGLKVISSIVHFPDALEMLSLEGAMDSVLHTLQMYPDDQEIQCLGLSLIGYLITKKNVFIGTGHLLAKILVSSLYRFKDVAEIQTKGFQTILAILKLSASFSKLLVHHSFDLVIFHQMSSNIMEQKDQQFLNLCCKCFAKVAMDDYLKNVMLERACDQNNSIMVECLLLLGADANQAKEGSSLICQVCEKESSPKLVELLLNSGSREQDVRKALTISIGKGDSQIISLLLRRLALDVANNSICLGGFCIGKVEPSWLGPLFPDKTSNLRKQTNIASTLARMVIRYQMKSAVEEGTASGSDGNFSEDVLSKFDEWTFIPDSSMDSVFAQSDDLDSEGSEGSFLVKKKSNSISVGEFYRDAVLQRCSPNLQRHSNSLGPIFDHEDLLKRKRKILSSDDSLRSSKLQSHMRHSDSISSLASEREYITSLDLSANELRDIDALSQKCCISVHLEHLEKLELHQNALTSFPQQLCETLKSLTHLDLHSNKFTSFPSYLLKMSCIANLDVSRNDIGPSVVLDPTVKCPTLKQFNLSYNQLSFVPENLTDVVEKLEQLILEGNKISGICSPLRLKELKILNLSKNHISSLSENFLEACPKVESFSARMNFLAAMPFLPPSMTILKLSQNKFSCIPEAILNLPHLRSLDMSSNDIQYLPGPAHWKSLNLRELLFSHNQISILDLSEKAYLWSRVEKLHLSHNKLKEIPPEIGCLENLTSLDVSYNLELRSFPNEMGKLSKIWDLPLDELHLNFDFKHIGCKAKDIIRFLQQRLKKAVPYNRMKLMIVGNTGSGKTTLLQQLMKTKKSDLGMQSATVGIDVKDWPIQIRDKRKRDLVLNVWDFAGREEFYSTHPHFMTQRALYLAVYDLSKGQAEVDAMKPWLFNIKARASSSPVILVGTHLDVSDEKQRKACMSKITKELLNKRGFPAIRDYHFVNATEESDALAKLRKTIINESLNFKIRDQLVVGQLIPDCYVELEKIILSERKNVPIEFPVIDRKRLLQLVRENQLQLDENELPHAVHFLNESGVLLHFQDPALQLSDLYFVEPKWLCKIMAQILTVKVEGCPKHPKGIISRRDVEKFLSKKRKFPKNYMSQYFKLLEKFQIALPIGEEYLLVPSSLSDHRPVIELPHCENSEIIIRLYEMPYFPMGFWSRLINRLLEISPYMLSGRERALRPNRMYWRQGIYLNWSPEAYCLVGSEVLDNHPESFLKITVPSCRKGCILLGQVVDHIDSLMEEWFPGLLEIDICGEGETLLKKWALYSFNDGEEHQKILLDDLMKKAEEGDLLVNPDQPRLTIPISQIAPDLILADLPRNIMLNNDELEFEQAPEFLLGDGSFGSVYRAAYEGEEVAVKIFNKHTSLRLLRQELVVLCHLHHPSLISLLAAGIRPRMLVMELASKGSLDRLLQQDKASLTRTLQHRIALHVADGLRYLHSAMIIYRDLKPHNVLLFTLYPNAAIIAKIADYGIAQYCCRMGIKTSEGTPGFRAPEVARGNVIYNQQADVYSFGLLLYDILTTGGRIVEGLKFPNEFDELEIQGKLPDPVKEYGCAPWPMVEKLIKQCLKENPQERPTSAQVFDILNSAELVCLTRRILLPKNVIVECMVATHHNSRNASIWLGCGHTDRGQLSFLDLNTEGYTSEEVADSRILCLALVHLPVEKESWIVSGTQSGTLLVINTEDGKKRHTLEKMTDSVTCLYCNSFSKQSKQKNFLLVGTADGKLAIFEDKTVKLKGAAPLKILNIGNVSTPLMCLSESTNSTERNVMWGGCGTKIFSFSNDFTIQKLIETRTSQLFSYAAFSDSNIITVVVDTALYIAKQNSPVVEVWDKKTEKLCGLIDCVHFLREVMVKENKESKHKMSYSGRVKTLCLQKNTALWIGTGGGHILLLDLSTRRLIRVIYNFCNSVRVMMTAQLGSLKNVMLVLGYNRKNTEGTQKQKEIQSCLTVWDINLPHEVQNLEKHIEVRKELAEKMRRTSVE
Mitogen-activated protein kinase 9, sequence (P45984 whole entry): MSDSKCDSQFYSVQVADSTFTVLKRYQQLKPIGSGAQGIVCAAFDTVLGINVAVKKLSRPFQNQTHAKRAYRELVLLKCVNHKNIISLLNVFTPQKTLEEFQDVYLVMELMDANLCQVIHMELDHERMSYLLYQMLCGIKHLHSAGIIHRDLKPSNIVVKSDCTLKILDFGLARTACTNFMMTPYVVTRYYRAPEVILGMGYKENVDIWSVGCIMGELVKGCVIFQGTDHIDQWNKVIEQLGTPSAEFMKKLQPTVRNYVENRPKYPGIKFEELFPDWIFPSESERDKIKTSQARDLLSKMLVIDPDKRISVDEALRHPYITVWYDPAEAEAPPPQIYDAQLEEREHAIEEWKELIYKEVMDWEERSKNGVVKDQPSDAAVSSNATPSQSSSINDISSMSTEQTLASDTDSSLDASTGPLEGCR
Cyclin-dependent kinase 1, sequence (P06493 whole entry): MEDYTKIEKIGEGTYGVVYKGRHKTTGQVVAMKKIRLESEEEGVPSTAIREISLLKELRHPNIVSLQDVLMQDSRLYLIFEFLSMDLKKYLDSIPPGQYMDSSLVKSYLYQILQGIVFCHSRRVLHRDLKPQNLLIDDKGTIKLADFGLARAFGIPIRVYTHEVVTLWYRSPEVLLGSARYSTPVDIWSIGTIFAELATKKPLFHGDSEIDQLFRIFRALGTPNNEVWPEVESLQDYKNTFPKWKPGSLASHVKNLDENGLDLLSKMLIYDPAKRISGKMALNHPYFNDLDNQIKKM
14-3-3 protein gamma, sequence (P61981 whole entry, the tested form may be a part): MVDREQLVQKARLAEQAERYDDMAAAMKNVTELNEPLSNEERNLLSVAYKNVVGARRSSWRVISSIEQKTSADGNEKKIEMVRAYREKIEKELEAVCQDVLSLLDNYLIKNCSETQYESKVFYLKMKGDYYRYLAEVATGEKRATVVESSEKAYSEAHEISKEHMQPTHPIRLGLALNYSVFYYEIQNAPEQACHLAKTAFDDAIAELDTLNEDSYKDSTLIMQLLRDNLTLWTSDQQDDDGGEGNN
Proto-oncogene tyrosine-protein kinase receptor Ret, sequence (P07949 whole entry): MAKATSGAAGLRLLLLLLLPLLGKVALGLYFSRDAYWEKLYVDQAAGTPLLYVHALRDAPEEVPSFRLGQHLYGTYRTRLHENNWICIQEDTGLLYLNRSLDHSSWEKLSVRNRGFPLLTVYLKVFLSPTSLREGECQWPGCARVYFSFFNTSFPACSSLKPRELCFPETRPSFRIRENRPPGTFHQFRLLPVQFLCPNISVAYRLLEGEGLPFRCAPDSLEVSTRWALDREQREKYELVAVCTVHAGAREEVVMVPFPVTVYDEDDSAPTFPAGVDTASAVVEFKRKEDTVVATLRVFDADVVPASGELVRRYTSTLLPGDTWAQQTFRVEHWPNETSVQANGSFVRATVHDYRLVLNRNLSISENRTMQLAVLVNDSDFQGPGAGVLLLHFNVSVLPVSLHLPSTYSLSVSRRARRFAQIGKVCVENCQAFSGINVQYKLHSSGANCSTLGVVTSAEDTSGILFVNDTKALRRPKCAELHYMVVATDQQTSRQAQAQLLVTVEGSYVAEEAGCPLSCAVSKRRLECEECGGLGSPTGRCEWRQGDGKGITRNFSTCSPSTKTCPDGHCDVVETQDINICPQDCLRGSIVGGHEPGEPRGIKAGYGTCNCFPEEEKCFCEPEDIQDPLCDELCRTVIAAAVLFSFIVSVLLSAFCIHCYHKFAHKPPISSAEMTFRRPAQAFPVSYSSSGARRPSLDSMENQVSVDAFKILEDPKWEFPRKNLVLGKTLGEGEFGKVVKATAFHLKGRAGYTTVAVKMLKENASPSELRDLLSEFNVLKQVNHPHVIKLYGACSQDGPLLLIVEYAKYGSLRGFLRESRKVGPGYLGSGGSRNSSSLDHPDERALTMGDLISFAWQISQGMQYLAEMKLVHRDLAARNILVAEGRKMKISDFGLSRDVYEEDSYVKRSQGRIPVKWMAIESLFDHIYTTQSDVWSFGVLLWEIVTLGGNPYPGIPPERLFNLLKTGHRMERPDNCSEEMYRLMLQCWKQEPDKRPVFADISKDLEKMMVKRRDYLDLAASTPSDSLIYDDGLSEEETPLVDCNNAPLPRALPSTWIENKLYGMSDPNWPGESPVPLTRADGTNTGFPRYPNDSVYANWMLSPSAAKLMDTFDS
Female germline-specific tumor suppressor gld-1, sequence (Q17339 whole entry): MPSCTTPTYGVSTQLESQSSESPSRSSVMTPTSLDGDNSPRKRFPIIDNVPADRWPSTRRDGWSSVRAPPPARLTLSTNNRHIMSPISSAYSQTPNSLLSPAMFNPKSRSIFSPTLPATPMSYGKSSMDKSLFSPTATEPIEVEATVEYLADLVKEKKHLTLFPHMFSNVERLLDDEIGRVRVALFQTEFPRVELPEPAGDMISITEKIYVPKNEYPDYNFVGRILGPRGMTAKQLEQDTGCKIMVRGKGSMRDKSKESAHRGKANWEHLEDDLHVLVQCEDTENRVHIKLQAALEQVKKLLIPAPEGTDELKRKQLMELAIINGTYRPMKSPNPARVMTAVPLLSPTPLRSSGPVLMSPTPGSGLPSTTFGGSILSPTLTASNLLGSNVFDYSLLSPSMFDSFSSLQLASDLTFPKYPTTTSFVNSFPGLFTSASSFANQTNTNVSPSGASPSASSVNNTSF

Compound: COC(=O)CCS(=O)(=O)c1nc(-c2ccccc2)cc(C(F)(F)F)n1
- CC50 [1]: 25.2 µM (active)
- CC50 [2]: 19.4 µM (active)

Compound: O=C(O)c1ccc(NC2=C(Cl)C(=O)c3ccccc3C2=O)cc1
- EC50 [3]: 2.74 µM (active)
- IC50 [4]: 10.8 µM (not active)
- EC50 [5]: 5.62 µM (active)

Compound: O=C(O)c1ccc2c3c(ncnc13)-c1ccccc1C2=O
- EC50 [6]: 16 µM (active)
- IC50 [7]: 3.51 µM (active)
- IC50 [8]: > 50 µM (not active)

Compound: CCOC(=O)c1c2c(n(Cc3ccccc3)c1C)C(=O)C(=O)c1ccccc1-2
- AC50 [9]: 6.77 µM (active)

Compound: Cc1ccc2nccc(NC(=O)Nc3cccc(C(F)(F)F)n3)c2c1
- Ki [10]: > 3.98 µM (inactive)
- Ki [11]: > 2 µM (inactive)
- Ki [12]: > 6.31 µM (inactive)
- Ki [13]: > 2.51 µM (inactive)
- Ki [14]: 0.501 µM (active)

Compound: Cc1c(/N=C2\C=CC(=O)c3ccccc32)c(=O)n(-c2ccccc2)n1C
- IC50 [15]: 12.1 µM (active)

Compound: COc1cc2c(cc1F)C(c1ccccc1Cl)=Nc1c(n[nH]c1C)N2 [RG-1530]
- Ki [16]: > 2.51 µM (inactive)
